PubChem BioAssay (NCI)
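Protocol summary: plate cells (96-well), add compound at 5 concentrations, incubate 48 h, interpolate endpoints linearly. GI50 is the concentration that inhibits growth by half. The concentration for full growth arrest is given as TGI.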

Columns and labels:
Assay in all cases: NCI-60 cell line screen, 48 h
[1] = test system: EKVX NSCLC
[2] = test system: UO-31 renal
[3] = test system: SK-OV-3 ovarian
[4] = test system: MALME-3M melanoma
[5] = test system: U251 CNS
[6] = test system: LXFL 529 NSCLC
[7] = test system: SN12C renal
[8] = test system: K-562 leukemia
[9] = test system: UACC-257 melanoma
[10] = test system: M19-MEL melanoma

Compound | TGI [1] | TGI [2] | TGI [3] | TGI [4] | TGI [5] | TGI [6] | TGI [7] | TGI [8] | TGI [9] | TGI [10] | GI50 [1] | GI50 [2] | GI50 [3] | GI50 [4] | GI50 [5] | GI50 [7] | GI50 [8] | GI50 [9]
Nc1nc(N)c(-c2ccccc2)c(C(=O)Nc2nccs2)n1 | > 100 µM | > 100 µM | > 100 µM | > 100 µM | > 100 µM | > 100 µM | > 100 µM | > 100 µM | > 100 µM | > 100 µM |  |  |  |  |  |  |  | 
O=C(O)C12C3C4C1C1C2C3C41I (stereo not given) | > 100 µM | > 100 µM | > 100 µM | > 100 µM | > 100 µM | > 100 µM | > 100 µM | > 100 µM | > 100 µM | > 100 µM |  |  |  |  |  |  |  | 
CCCNc1ncnc2c1cnn2C |  |  | > 100 µM | > 100 µM | > 100 µM |  | > 100 µM | > 100 µM | > 100 µM | > 100 µM |  |  |  |  |  |  |  | 
COC(=O)C1=C(C)N(NC(=O)Nc2ccccc2)C2(N)N(NC(=O)Nc3ccccc3)C(C)=C(C(=O)OC)C12C(=O)OC (stereo not given) |  | > 100 µM | > 100 µM | > 100 µM | > 100 µM | > 100 µM | > 100 µM | > 100 µM | > 100 µM | 78.7 µM |  |  |  |  |  |  |  | 
CCOC(=O)/C(=C/c1ccc[nH]1)P(=O)(OCC)OCC | > 100 µM | > 100 µM | > 100 µM | > 100 µM | > 100 µM | > 100 µM | > 100 µM | > 100 µM | > 100 µM | > 100 µM |  |  |  |  |  |  |  | 
CCCCCCCCCCCCCCCC(=O)NCC(OCC)OCC | > 100 µM | > 100 µM | > 100 µM | > 100 µM | > 100 µM | > 100 µM | > 100 µM |  | > 100 µM | > 100 µM |  |  |  |  |  |  |  | 
CN1C/C(=C\c2ccco2)c2nc(N)nc(-c3ccco3)c2C1 | > 100 µM | > 100 µM | > 100 µM | > 100 µM | > 100 µM | > 100 µM | > 100 µM | > 100 µM | > 100 µM | > 100 µM |  |  |  |  |  |  |  | 
CC1=C2[C@@H](c3ccccc3)C3C=CC2(C=C3C(F)(F)F)N(C(=O)NC2CCCCC2)C1=O (stereo not given in full) | > 100 µM | > 100 µM | > 100 µM | > 100 µM | > 100 µM | > 100 µM | > 100 µM | > 100 µM | > 100 µM | > 100 µM |  |  |  |  |  |  |  | 
Cc1cc2c(=O)cc(-c3ccncc3)oc2c(C(=O)O)c1C | > 100 µM | > 100 µM | > 100 µM | > 100 µM | > 100 µM | > 100 µM | > 100 µM |  | > 100 µM | > 100 µM |  |  |  |  |  |  |  | 
O=C(NCc1cccnc1)c1ccc([N+](=O)[O-])o1 | > 32.5 µM | > 14.7 µM | 14.2 µM | 7.88 µM | 3.83 µM |  | 4.49 µM | > 32.5 µM | 5.03 µM |  | 13.3 µM | 2.83 µM | 4.13 µM | 1.56 µM | 1.03 µM | 1.19 µM | 2.06 µM | 1.13 µM
Cc1nc(-c2cccnc2)sc1C(=O)/C=C/c1ccc(Cl)cc1Cl | > 100 µM | > 100 µM | > 100 µM | > 100 µM | > 100 µM |  | > 100 µM | > 100 µM | > 100 µM | > 100 µM |  |  |  |  |  |  |  | 
Cc1c(-c2ccc(N3CCc4cccc(C(=O)Nc5nc6ccccc6s5)c4C3)nc2C(=O)O)cnn1CC12CC3CC(CC(C3)C1)C2 | 28.3 µM | 9.36 µM | 21.3 µM | 33.7 µM | 30.2 µM |  | 29.8 µM | > 100 µM | 30.2 µM |  | 8.62 µM | 2.6 µM | 6.99 µM | 14.3 µM | 7.04 µM | 6.93 µM | 7.51 µM | 10.5 µM
COc1ccc(Cl)cc1Nc1nc(C(F)(F)F)ccc1C(=O)N/N=C/c1ccc(Cl)cc1 | > 100 µM | > 100 µM | 22.9 µM | 9.2 µM | 69.3 µM |  | > 100 µM | 40.5 µM | > 100 µM |  | 4.45 µM | 1.03 µM | 1.95 µM | 1.36 µM | 4.79 µM | 8.67 µM | 3.85 µM | 7.91 µM
O=C(/C=C/c1ccc(OCC(=O)N2CCN(c3ccccc3)CC2)cc1)c1ccccc1 | 98.9 µM | > 62 µM | > 100 µM | > 58.2 µM | 38 µM | > 94.2 µM | > 100 µM | > 43 µM | > 100 µM | > 100 µM |  |  |  |  |  |  |  | 
COC(=O)/C(=C/c1ccc(OC)cc1)c1cc(OC)c(OC)c(OC)c1 | > 100 µM | 74.9 µM | 40.4 µM | > 100 µM | 39 µM | > 100 µM | > 100 µM | > 58.4 µM | > 84.3 µM | > 100 µM |  |  |  |  |  |  |  | 
CN1CCN(Cc2ccc(NC(=O)c3cncc(C#Cc4cnc5cccnn45)c3)cc2C(F)(F)F)CC1 | 3.49 µM | 3.78 µM | 5.21 µM | 1.42 µM | 5.42 µM |  | 5.2 µM | 21.6 µM | 5.04 µM |  | 1.19 µM | 1.49 µM | 1.67 µM | 0.595 µM | 1.48 µM | 1.26 µM | 0.005 µM | 1.4 µM
Nc1ccc(N)c2c1C(=O)c1cccc([N+](=O)[O-])c1C2=O | > 100 µM | > 22.6 µM | > 100 µM | > 100 µM | > 100 µM |  | > 100 µM | > 100 µM |  |  | 7.72 µM | 2.68 µM | 3.43 µM | 5.69 µM | 2.85 µM | 2.48 µM | 5.45 µM | 0.784 µM
COC(=O)CCSC(=O)Nc1ccccc1Cl | > 100 µM | > 100 µM |  |  | > 100 µM | > 100 µM | > 100 µM | > 100 µM | > 100 µM |  |  |  |  |  |  |  |  | 
O=C(c1ccccc1)c1ccc(N2C(=O)C3C4c5ccccc5C(/C=C/C(=O)c5ccccn5)(c5ccccc54)C3C2=O)cc1 (stereo not given) | 39 µM | 2.92 µM | > 100 µM | 6.48 µM | 4.62 µM |  | > 100 µM | > 100 µM | 46.6 µM |  | 3.02 µM | 1.45 µM | > 81.7 µM | 2.33 µM | 2.08 µM | 2.73 µM | 1.77 µM | 2.44 µM
